According to patent publication US5081253A, “Imidazo(4,5-C)pyridines as antiosteoporotic agents” (American Home Products Corporation, priority 1990, dated 1992):

How the values were obtained:
[1] = tested on: Rat Limb Bones (basal bone resorption); assay: Basal Bone Resorption Assay: 45Ca Release from Rat Limb Bones; format: cell-based; conditions: 10 μg/mL
Text: The purpose of this assay is to test stimulators and inhibitors of bone resorption in vitro. The release of ^45 Ca from in vitro labeled murine bone explants into the culture media is taken as an index of bone resorption.
Rat pups are labelled […] by injecting pregnant dams (18 days) with 100 μCi of ^45 Ca.
Two days after the initiation of labelling, the dam is anesthetized with halothane and killed by cervical dislocation. The pups are ablated and quickly decapitated. The calvaria (frontal and parietal bones), forelimbs (containing radii and ulnae), and hind limbs (tibiae) are removed and placed in control media in a petri dish. Bones are debrided of soft tissue by a combination of blunt dissection, and gentle rolling on bibulous paper, taking care not to disturb the periosteum. Cartilaginous ends are cut off long bones. Calvaria are cut in half along midline suture. Bones are separated into 3 categories: calvaria halves, Tibiae and ulnae/radii. Groups of eight (per bone group) are randomly placed in 24-well culture plates containing 0.5 mL of control media. Cultures are maintained at 37° C. in a humidified incubator of 95% air: 5% CO2.
These bones are incubated for 24 hours, media is aspirated from the bones and replaced with fresh media containing test substances. Each bone group has a control group of 8 and a dead bone group of 8. The devitalized cultures are obtained by heating the bones in medium at 55° C. for 60 minutes. The bones are incubated at 37° C. for an additional 72 hours. At the end of this period a 100 microliter aliquot of media is removed and placed in a scintillation vial. Ten mL of Aquasol is added, the ^45 Ca is quantified in a scintillation spectrometer. Bones are rinsed in saline, placed in a scintillation vial, hydrolyzed overnight in 0.75 mL 6N HCl at room temperature. The hydrolyzed bone solution is neutralized by the addition of 2.25 mL of 2N NaOH, followed by 10 mL of Aquasol, the ^45 Ca content is determined by scintillation spectrometry.
Analysis: ^45 Ca release into culture medium from the 24-96 hour period is individually compared to ^45 Ca release in control cultures and to devitalized bone via Dunnett's test. […]

[2] = tested on: Rat Limb Bones (PTH induced bone resorption); assay: Bone Resorption Assay: 45Ca Release from Rat Limb Bones (PTH Induced); format: cell-based, rat (Sprague-Dawley CD)
Procedure: The purpose of this assay is to identify compounds that inhibit basal or stimulated bone resorption in culture.
The ability of 2-substituted-imidazo[4,5-c]pyridines to modify the process of bone resorption was evaluated essentially as described by L.G. Raisz, Bone resorption in tissue culture. Factors influencing the response to parathyroid hormone.
Timed pregnant Sprague-Dawley CD® rats (Charles River) are administered 100 μCi ^45 CaCl2 (NEN calcium -45 NEZ-013) in 100 μL of 0.9% saline, subcutaneously, on day 18 of gestation. The rats are sacrificed the following day by CO2 asphyxiation. The fetuses are removed and the right forelimbs excised and placed in a Petri dish containing ice cold explant medium consisting of modified BGJb -Fitton Jackson media (custom formulation, Gibco No. 78-0088) adjusted to pH 7.3 to which 10 mM TES is added. […] Under a dissecting microscope, the bones are gently cleaned of adherent tissue and the cartilaginous ends removed. Incubation and drug treatment. […] The preincubation medium is brought to 37° C. prior to transfer of bones. The preincubation medium consists of the modified BGJb medium (with salts and glucose as above), pH 7.3, containing 29 mM NaHCO3. […] For compounds that require nonaqueous solvents, dilutions are made from the appropriate stock solution with medium. In these instances, basal and bone resorption stimulated controls exposed to an equivalent concentration of the vehicle are included. […] The right ulna and radius from each fetus are used. Both bones are subjected to the same treatment and each treatment group consists of bones from 4 or more fetuses. Treatments are randomly assigned using a preclinical statistics program (PS-ALLOC). After a 48 hour incubation at 37° C. in 5% CO2, the bones are removed from the medium and extracted in 0.5 mL of 0.1N HCl for 1 or more days. Duplicate 150 μL aliquots of the incubation medium and the bone extract are analyzed for ^45 Ca radioactivity in 5 mL of liquid scintillation cocktail.
The percentage of bone ^45 Ca released into the medium is determined as follows: [formula] […]

[3] = tested on: osteopenia induced by denervation of the sciatic nerve in rats; assay: Denervation Induced Osteopenia in Rats; format: in vivo, rat (female Sprague Dawley CD)
Text: The purpose of this assay is to evaluate the effect, in rats, of agents on the reduction in bone mass (osteopenia) induced by immobilization resulting from surgical severance (denervation) of the sciatic nerve.
The animals are housed in plastic cages (4 or 5 rats/cage) with food (rat purina 500 chow) and water ad libitum; 14/10 day/night cycle.
After one week of in-house acclimatization, the animals are randomly divided into groups of 6 to 10 rats/group. Each rat is weighed, anesthetized with an intraperitoneal administration of 100 mg/kg ketamine (Bristol Laboratories, Syracuse, N.Y.) and 0.75 mg/kg Acepromazine (Aveco, Ft. Dodge, Iowa). The left hind limb is shaved and denervated by making a lateral incision parallel to the femur and by surgically removing half of a centimeter of the sciatic nerve adjacent to caudofemoralis and adductor brevis muscles. The incision is closed with wound clips. After surgery, the rats are housed in cages with absorbent bedding to minimize additional trauma to the immobilized limb. A 24 hour post-surgery recovery period is allowed before the initiation of the drug treatment.
The concentration of the drug stock is calculated to be delivered in a volume of 0.1 mL/100 gram body weight. The drug solution or a uniform suspension is prepared in 1% Tween 80 in normal saline. The drugs are administered via oral or parenteral routes daily (five times a week) for four weeks.
A sequential triple labeling of mineralized tissue is employed to determine the osseous changes (especially the bone formation) and the mineralization rates. Each animal is administered 90 mg/kg Xylenol orange (Fisher Scientific Company), S.C., 15 mg/kg Calcein (Sigma Chemical Company), S.C. and 15 mg/kg Demeclocycline (Sigma Chemical Company), i.p., approximately 21 days, 10 days and 2 days prior to the termination of the study, respectively.
At the end of the fourth week, each rat is weighed, anesthetized with an intraperitoneal administration of 100 mg/kg ketamine with 0.75 mg/kg Acepromazine and approximately 4 mL of blood collected via cardiac puncture. The anesthetized rats are euthanized by exposure to carbon dioxide. The femora and tibiae from both limbs are dissected free of soft tissue. (i) Femora are ashed at ~1100° C. for 16 hours using a muffle furnace. --(ii) Proximal tibia are fixed, dehydrated and embedded undecalcified in a methyl methacrylate-glycol methacrylate mixture. Longitudinal tissue sections (10 microns) are prepared on a Polycut S microtome (Reichert). Staining is performed on free-floating sections using a modified Goldner's stain, which are then mounted and coverslipped.
Cancellous bone content in the proximal tibia is quantified (as two dimensional bone mineral area [B.Ar]) with an image analysis processing device (software developed by Drexel University).
The areas of the tibia selected for cancellous bone content evaluation are the primary and secondary spongiosa. To select and standardize this area for evaluation, the epiphyseal growth plate-metaphyseal junction is oriented parallel to the abscissa of the digitizing screen. Bone elements 1.7 mm (secondary spongiosa) and 0.2 mm (primary spongiosa) from the growth plate and equidistant from the flanking cortical elements are then quantified as described above. The total area evaluated is 2.30 mm wide and 1.45 mm deep, constituting a 3.34 mm^2 area.
Body weight, femur mass (dried or ashed) and trabecular (cancellous) bone mineral area (B.Ar) are determined.
The difference (both absolute and percent change) in femur mass and bone mineral area between intact (control) and denervated limbs of a treatment group are compared with that for the vehicle group using a one-way analysis of variance with Dunnett's test, or other multiple comparison methods.
The results are reported in Table I and II under the heading In Vivo.

COc1ccc(CSc2nc3cnccc3[nH]2)cc1 [Example 26, 2-[[(4-Methoxyphenyl)methyl]thio]-1H-imidazo[4,5-c]pyridine]
Inhibition of Bone Resorption, Basal ([1]; Table II): Inactive
Inhibition of Bone Resorption, PTH Induced ([2]; Table II, 10 μg/mL): Active
Inhibition of Bone Resorption, In Vivo ([3]; Table II, 25 mg/kg, p.o.): Inactive

Fc1ccc(CSc2nc3cnccc3[nH]2)cc1F [Example 30, 2-[[(3,4-Difluorophenyl)methyl]thio]-1H-imidazo[4,5-c]pyridine]
Inhibition of Bone Resorption, Basal ([1]; Table II): Inactive
Inhibition of Bone Resorption, PTH Induced ([2]; Table II, 10 μg/mL): Inactive
Inhibition of Bone Resorption, In Vivo ([3]; Table II, 25 mg/kg, p.o.): Inactive

Cc1cc(C)c(C[S+]([O-])c2nc3cnccc3[nH]2)c(C)c1 (stereo not shown) [Example 19, 2-[[(2,4,6-Trimethylphenyl)methyl]sulfinyl]-1H-imidazo[4,5-c]pyridine]
Inhibition of Bone Resorption, Basal ([1]; Table I): Active
Inhibition of Bone Resorption, PTH Induced ([2]; Table I, 10 μg/mL): Active
Inhibition of Bone Resorption, In Vivo ([3]; po, 672 h): Inactive

COc1cccc(CC[S+]([O-])c2nc3cnccc3[nH]2)c1 (stereo not shown) [Example 17, 2-[[(3 -Methoxyphenyl)ethyl]sulfinyl]-1H-imidazo[4,5-c]pyridine]
Inhibition of Bone Resorption, Basal ([1]; Table I): Inactive
Inhibition of Bone Resorption, PTH Induced ([2]; Table I, 10 μg/mL): Active
Inhibition of Bone Resorption, In Vivo ([3]; Table I, no dose given, oral or parenteral daily (five times a week) for four weeks): Borderline

COc1cccc(C[S+]([O-])c2nc3cnccc3[nH]2)c1 (stereo not shown) [Example 3, 2-[[(3-Methoxyphenyl)methyl]sulfinyl]-1H-imidazo[4,5-c]pyridine]
Inhibition of Bone Resorption, Basal ([1]; Table I): Active
IC50 ([2]; Rattus norvegicus, Table I, read-out: Inhibition of Bone Resorption, PTH Induced IC50): 49 µM
Inhibition of Bone Resorption, PTH Induced ([2]; Table I, concentration not given): Active
Inhibition of Bone Resorption, In Vivo ([3]; po, 672 h): Active

[O-][S+](Cc1cccc(OCc2ccccc2)c1)c1nc2cnccc2[nH]1 (stereo not shown) [Example 23]
Inhibition of Bone Resorption, Basal ([1]; Table I): Active
Inhibition of Bone Resorption, PTH Induced ([2]; Table I, 10 μg/mL): Active
Inhibition of Bone Resorption, In Vivo ([3]; po, 672 h): Inactive

[O-][S+](Cc1ccc(Br)cc1F)c1nc2cnccc2[nH]1 (stereo not shown) [Example 21, 2-[[(4-Bromo-2-fluorophenyl)methyl]sulfinyl]-1H-imidazo[4,5-c]pyridine]
Inhibition of Bone Resorption, Basal ([1]; Table I): Active
Inhibition of Bone Resorption, PTH Induced ([2]; Table I, 10 μg/mL): Active
Inhibition of Bone Resorption, In Vivo ([3]; po, 672 h): Inactive

Fc1c(F)c(F)c(CSc2nc3cnccc3[nH]2)c(F)c1F [Example 32, 2-[[(Pentafluorophenyl)methyl]thio]-1H-imidazo[4,5-c]pyridine]
Inhibition of Bone Resorption, Basal ([1]; Table II): Inactive
Inhibition of Bone Resorption, PTH Induced ([2]; Table II, 10 μg/mL): Inactive
Inhibition of Bone Resorption, In Vivo ([3]; Table II, 25 mg/kg, p.o.): Inactive

[O-][S+](Cc1c(F)cccc1Cl)c1nc2cnccc2[nH]1 (stereo not shown) [Example 10, 2-[[(2-Chloro-6-fluorophenyl)methyl]-sulfinyl]-1H-imidazo[4,5-c]pyridine]
Inhibition of Bone Resorption, Basal ([1]; Table I): Active
Inhibition of Bone Resorption, PTH Induced ([2]; Table I, 10 μg/mL): Active
Inhibition of Bone Resorption, In Vivo ([3]; po, 672 h): Inactive

COc1cccc(CS(=O)(=O)c2nc3cnccc3[nH]2)c1 [Example 4]
Inhibition of Bone Resorption, Basal ([1]; Table I): Marginal
Inhibition of Bone Resorption, PTH Induced ([2]; Table I, 10 μg/mL): Active
Inhibition of Bone Resorption, In Vivo ([3]; po, 672 h): Inactive

[O-][S+](Cc1ccccc1)c1nc2cnccc2[nH]1 (stereo not shown) [Example 12, 2-[[(Phenyl)methyl]sulfinyl]-1H-imidazo-[4,5-c]pyridine]
Inhibition of Bone Resorption, Basal ([1]; Table I): Active
Inhibition of Bone Resorption, PTH Induced ([2]; Table I, 10 μg/mL): Active
Inhibition of Bone Resorption, In Vivo ([3]; po, 672 h): Inactive
